A value given as a limit tells only on which side of the number the result lay.

The assay has as its target T1, human follicle-stimulating hormone receptor (FSHR) (Homo sapiens, UniProt P23945).
T1 construct: host or cells: CHO-K1
T1 sequence (P23945 18-695): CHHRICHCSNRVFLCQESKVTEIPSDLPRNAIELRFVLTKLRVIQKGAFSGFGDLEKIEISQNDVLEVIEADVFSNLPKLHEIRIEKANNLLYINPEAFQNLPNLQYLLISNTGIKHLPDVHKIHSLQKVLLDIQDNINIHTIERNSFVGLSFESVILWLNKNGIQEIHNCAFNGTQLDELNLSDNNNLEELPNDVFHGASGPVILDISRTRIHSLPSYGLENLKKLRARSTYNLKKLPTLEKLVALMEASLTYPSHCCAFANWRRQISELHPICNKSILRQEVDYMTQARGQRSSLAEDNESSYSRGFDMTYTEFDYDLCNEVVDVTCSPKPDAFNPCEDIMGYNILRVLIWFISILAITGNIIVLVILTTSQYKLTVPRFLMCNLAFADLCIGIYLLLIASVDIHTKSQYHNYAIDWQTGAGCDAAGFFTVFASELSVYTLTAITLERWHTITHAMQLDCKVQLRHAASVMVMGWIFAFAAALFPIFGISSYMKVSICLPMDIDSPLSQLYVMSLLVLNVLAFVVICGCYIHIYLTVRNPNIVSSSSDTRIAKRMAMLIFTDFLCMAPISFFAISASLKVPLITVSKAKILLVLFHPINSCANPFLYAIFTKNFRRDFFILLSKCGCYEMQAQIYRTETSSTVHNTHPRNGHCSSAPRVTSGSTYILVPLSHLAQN
Nature of the assay: Measurement of agonist cAMP production by activation of human FSHR. In kind it is cell-based. The note with it: CHO-K1 human FSHR cells, 30 minutes at 37° C., HTRF cAMP kit; read-out: hFSHR Agonist cAMP EC50. The essentials:
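cAMP output was measured by HTRF after 30 min at 37 °C agonist exposure (0–10,000 nM final) in stably FSHR-transfected CHO-K1 cells. Lysate cAMP was read off a standard curve and fitted to obtain half-maximal EC50.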
Background: Changes in cAMP serve as a functional read-out for many G protein-coupled receptors.
Take `COc1cc2c(cc1-c1cccc(NC(=O)CCOCCOCCOCCOCCNC(=O)CCC(C(=O)O)N3CCN(CC(=O)O)CCN(CC(=O)O)CCN(CC(=O)O)CC3)c1)-c1c(c(C(=O)N3CCOCC3(C)C)nn1-c1cc(Cl)cc(Cl)c1)CO2` (centres unmarked) [Compound 28]: the EC50 was < 10 nM. `COc1cc2c(cc1-c1cccc(NC(=O)CN3CCN(CC(=O)O)CCN(CC(=O)O)CCN(CC(=O)O)CC3)c1)-c1c(c(C(=O)N3CCOCC3(C)C)nn1-c1cc(Cl)cc(Cl)c1)CO2` [Compound 29, 2,2′,2″-(10-(2-((3-(1-(3,5-dichlorophenyl)-3-(3,3-dimethylmorpholine-4-carbonyl)-7-methoxy-1,4-dihydrochromeno|4,3-c|pyrazol-8-yl)phenyl)amino)-2-oxoethyl)-1,4,7,10-tetraazacyclododecane-1,4,7-triyl)triacetic acid]: the EC50 was > 100 nM. Turning to `COc1cc2c(cc1-c1cccc(NC(=O)C[C@@H](NC(=O)CN3CCN(CC(=O)O)CCN(CC(=O)O)CCN(CC(=O)O)CC3)C(=O)O)c1)-c1c(c(C(=O)N3CCOCC3(C)C)nn1-c1cc(Cl)cc(Cl)c1)CO2` [Compound 30], the EC50 is 10 to 100 nM. `COc1cc2c(cc1-c1cccc(NC(=O)CC[C@@H](NC(=O)CN3CCN(CC(=O)O)CCN(CC(=O)O)CCN(CC(=O)O)CC3)C(=O)O)c1)-c1c(c(C(=O)N3CCOCC3(C)C)nn1-c1cc(Cl)cc(Cl)c1)CO2` [Compound 31]: the EC50 lay within 10 to 100 nM.

For `COc1cc2c(cc1-c1cccc(NC(=O)CNC(=O)C[C@@H](NC(=O)CN3CCN(CC(=O)O)CCN(CC(=O)O)CCN(CC(=O)O)CC3)C(=O)O)c1)-c1c(c(C(=O)N3CCOCC3(C)C)nn1-c1cc(Cl)cc(Cl)c1)CO2` [Compound 32, (R)-2,2′,2″-(10-(2-((1-carboxy-3-((2-((3-(1-(3,5-dichlorophenyl)-3-(3,3-dimethylmorpholine-4-carbonyl)-7-methoxy-1,4-dihydrochromeno|4,3-clpyrazol-8-yl)phenyl)amino)-2-oxoethyl)amino)-3-oxopropyl)amino)-2-oxoethyl)-1,4,7,10-tetraazacyclododecane-1,4,7-triyl)triacetic acid], the EC50 fell in the range of 10 to 100 nM. Under `COc1cc2c(cc1-c1cccc(NC(=O)[C@H](CS(=O)(=O)O)NC(=O)CN3CCN(CC(=O)O)CCN(CC(=O)O)CCN(CC(=O)O)CC3)c1)-c1c(c(C(=O)N3CCOCC3(C)C)nn1-c1cc(Cl)cc(Cl)c1)CO2` [Compound 33, (R)-2,2′,2″-(10-(2-((1-((3-(1-(3,5-dichlorophenyl)-3-(3,3-dimethylmorpholine-4-carbonyl)-7-methoxy-1,4-dihydrochromeno|4,3-c|pyrazol-8-yl)phenyl)amino)-1-oxo-3-sulfopropan-2-yl)amino)-2-oxoethyl)-1,4,7,10-tetraazacyclododecane-1,4,7-triyl)triacetic acid] stands > 100 nM; under `COc1cc2c(cc1-c1cccc(NC(=O)C3OC(CNC(=O)CN4CCN(CC(=O)O)CCN(CC(=O)O)CCN(CC(=O)O)CC4)C(O)C(O)C3O)c1)-c1c(c(C(=O)N3CCOCC3(C)C)nn1-c1cc(Cl)cc(Cl)c1)CO2` [Compound 34, 2,2′,2″-(10-(2-((((2S,3R,4R,5R,6S)-6-((3-(1-(3,5-dichlorophenyl)-3-(3,3dimethylmorpholine-4-carbonyl)-7-methoxy-1,4-dihydrochromeno|4,3-c]pyrazol-8-yl)phenyl)carbamoyl)-3,4,5-trihydroxytetrahydro-2H-pyran-2-yl)methyl)amino)-2-oxoethyl)-1,4,7,10-tetraazacyclododecane-1,4,7-triyl)triacetic acid], 10 to 100 nM. The figure for `COc1cc2c(cc1-c1cccc(NC(=O)C(CNC(=O)CCNC(=O)CN3CCN(CC(=O)O)CCN(CC(=O)O)CCN(CC(=O)O)CC3)CNC(=O)CCNC(=O)CN3CCN(CC(=O)O)CCN(CC(=O)O)CCN(CC(=O)O)CC3)c1)-c1c(c(C(=O)N3CCOCC3(C)C)nn1-c1cc(Cl)cc(Cl)c1)CO2` [Compound 35] is > 100 nM; for `COc1cc2c(cc1-c1cccc(NC(=O)CCNC(=O)CN3CCC(NC(=O)CN4CCN(CC(=O)O)CCN(CC(=O)O)CCN(CC(=O)O)CC4)CC3)c1)-c1c(c(C(=O)N3CCOCC3(C)C)nn1-c1cc(Cl)cc(Cl)c1)CO2` [Compound 36, 2,2′,2″-(10-(2-((1-(2-((3-((3-(1-(3,5-dichlorophenyl)-3-(3,3dimethylmorpholine-4-carbonyl)-7-methoxy-1,4-dihydrochromeno|4,3-clpyrazol-8-yl)phenyl)amino)-3-oxopropyl)amino)-2-oxoethyl)piperidin-4-yl)amino)-2-oxoethyl)-1,4,7,10-tetraazacyclododecane-1,4,7-triyl)triacetic acid] it is < 10 nM. Regarding `COc1cc2c(cc1-c1cccc(NC(=O)CCNC(=O)[C@H](CS(=O)(=O)O)NC(=O)CN3CCN(CC(=O)O)CCN(CC(=O)O)CCN(CC(=O)O)CC3)c1)-c1c(c(C(=O)N3CCOCC3(C)C)nn1-c1cc(Cl)cc(Cl)c1)CO2` [Compound 37, (R)-2,2′,2″-(10-(2-((1-((3-((3-(1-(3,5-dichlorophenyl)-3-(3,3dimethylmorpholine-4-carbonyl)-7-methoxy-1,4-dihydrochromeno|4,3-clpyrazol-8-yl)phenyl)amino)-3-oxopropyl)amino)-1-oxo-3-sulfopropan-2-yl)amino)-2-oxoethyl)-1,4,7,10-tetraazacyclododecane-1,4,7-triyl)triacetic acid], the EC50 lay within 10 to 100 nM. As for `COc1cc2c(cc1-c1cccc(NC(=O)C[C@H](O)C[C@H](O)CCNC(=O)CN3CCN(CC(=O)O)CCN(CC(=O)O)CCN(CC(=O)O)CC3)c1)-c1c(c(C(=O)N3CCOCC3(C)C)nn1-c1cc(Cl)cc(Cl)c1)CO2` [Compound 38], the EC50 lay in the range of 10 to 100 nM. For the molecule `COc1cc2c(cc1-c1cccc(/C(C)=N/OCCNC(=O)CN3CCN(CC(=O)O)CCN(CC(=O)O)CCN(CC(=O)O)CC3)c1)-c1c(c(C(=O)N3CCOCC3(C)C)nn1-c1cc(Cl)cc(Cl)c1)CO2` [Compound 39], the EC50 is 10 to 100 nM. Under `COc1cc2c(cc1-c1cccc(/C(C)=N/OCCNC(=O)CN3CCN(C(=O)CN4CCN(CC(=O)O)CCN(CC(=O)O)CCN(CC(=O)O)CC4)CC3)c1)-c1c(c(C(=O)N3CCOCC3(C)C)nn1-c1cc(Cl)cc(Cl)c1)CO2` [Compound 40] stands 10 to 100 nM; under `COc1cc2c(cc1-c1cccc(/C(C)=N/OCCNC(=O)COCCOCCNC(=O)CN3CCN(CC(=O)O)CCN(CC(=O)O)CCN(CC(=O)O)CC3)c1)-c1c(c(C(=O)N3CCOCC3(C)C)nn1-c1cc(Cl)cc(Cl)c1)CO2` [Compound 41, (E)-2,2′,2″-(10-(1-(3-(1-(3,5-dichlorophenyl)-3-(3,3-dimethylmorpholine-4carbonyl)-7-methoxy-1,4-dihydrochromeno|4,3-c|pyrazol-8-yl)phenyl)-7,16-dioxo-3,9,12-trioxa-2,6,15-triazaheptadec-1-en-17-yl)-1,4,7,10-tetraazacyclododecane-1,4,7-triyl)triacetic acid], 10 to 100 nM. Take `COc1cc2c(cc1-c1cccc(/C(C)=N/OCCNC(=O)CN(C)C(=O)CN(C)C(=O)CN3CCN(CC(=O)O)CCN(CC(=O)O)CCN(CC(=O)O)CC3)c1)-c1c(c(C(=O)N3CCOCC3(C)C)nn1-c1cc(Cl)cc(Cl)c1)CO2` [Compound 42, (E)-2,2′,2″-(10-(1-(3-(1-(3,5-dichlorophenyl)-3-(3,3-dimethylmorpholine-4carbonyl)-7-methoxy-1,4-dihydrochromeno|4,3-c|pyrazol-8-yl)phenyl)-9,12-dimethyl-7,10,13-trioxo-3-oxa-2,6,9,12-tetraazatetradec-1-en-14-yl)-1,4,7,10-tetraazacyclododecane-1,4,7-triyl)triacetic acid]: the EC50 was 10 to 100 nM. Under `COc1cc2c(cc1-c1cccc(NC(=O)CONC(=O)CN3CCN(CC(=O)O)CCN(CC(=O)O)CCN(CC(=O)O)CC3)c1)-c1c(c(C(=O)N3CCOCC3(C)C)nn1-c1cc(Cl)cc(Cl)c1)CO2` [Compound 43] stands 10 to 100 nM; under `COc1cc2c(cc1-c1cccc(NC(=O)CON=C3CN(C(=O)CN4CCN(CC(=O)O)CCN(CC(=O)O)CCN(CC(=O)O)CC4)C3)c1)-c1c(c(C(=O)N3CCOCC3(C)C)nn1-c1cc(Cl)cc(Cl)c1)CO2` [Compound 44, 2,2′,2″-(10-(2-(3-((2-((3-(1-(3,5-dichlorophenyl)-3-(3,3-dimethylmorpholine-4carbonyl)-7-methoxy-1,4-dihydrochromeno|4,3-c|pyrazol-8-yl)phenyl)amino)-2-oxoethoxy)imino)azetidin-1-yl)-2-oxoethyl)-1,4,7,10-tetraazacyclododecane-1,4,7-triyl)triacetic acid], < 10 nM.

As a reminder, the EC50 is the concentration giving half of the maximal effect.

The values are drawn from US20260137819A1 (Radionetics Oncology, Inc., priority 2022, published 2026).
